Source: patent publication US8044221B2, “Fluorine-containing boronic acid ester compound and method for producing the same” (Unimatec Co., Ltd., priority 2008, dated 2011)
Like-named read-outs stand apart in the source and are kept apart here.

Assay: Solubility in fluorine-containing organic solvent 1,3-bis(trifluoromethyl)benzene, visually measured
Experimental: The solubility of the fluorine-containing boronic acid ester compound [A] in 1,3-bis(trifluoromethyl)benzene, which was a fluorine-containing organic solvent used in Reference Example 3, described later, was 3.0 g/10 ml·solvent. Here, the solubility was determined in such a manner that the compound was added and stirred in 10 ml of said fluorine-containing organic solvent at 25° C., and then the maximum amount of addition sufficient to make the solution homogeneous was visually measured.
From this fact, a high solubility in a fluorine-containing organic solvent was confirmed.

[1] = 10 ml solvent, stirred at 25° C., maximum amount of addition giving a homogeneous solution, visually measured

Structure (SMILES) | solubility in 1,3-bis(trifluoromethyl)benzene [1] | other results
OB(O)c1ccc(B(O)O)cc1 [1,4-benzene diboronic acid] | insoluble | 
CC1(C)OB(c2ccc(B3OC(C)(C)C(C)(C)O3)cc2)OC1(C)C [1,4-bis(4,4,5,5-tetramethyl-1,3,2-dioxaborolan-2-yl)benzene] |  | solubility in 1,3-bis(trifluoromethyl)benzene: 0.17 g/10 ml·solvent
CN(C(=O)C(F)(OC(F)(F)C(F)(F)C(F)(F)F)C(F)(F)F)c1cc(B2OC(C)(C)C(C)(C)O2)cc(B2OC(C)(C)C(C)(C)O2)c1 (stereo not shown) [compound [A]] | 3.0 g/10 ml·solvent | 
CN(C(=O)C(F)(OC(F)(F)C(F)(OC(F)(F)C(F)(OC(F)(F)C(F)(F)C(F)(F)F)C(F)(F)F)C(F)(F)F)C(F)(F)F)c1cc(B2OC(C)(C)C(C)(C)O2)cc(B2OC(C)(C)C(C)(C)O2)c1 (stereo not shown) [compound [B]] |  | solubility in a fluorine-containing organic solvent (5 g added to 10 ml of 1,3-bis(trifluoromethyl)benzene): a homogeneous solution was formed
